# Where “and” joins values, the source holds several entries; their conditions need not be identical. Identical values can stand only once. Like-named read-outs stand apart in the source and are kept apart here.
# How the values were obtained:
# [1] = tested on: S. aureus strain ATCC13709; test: Neutropenic mouse thigh infection model; assay type: in vivo, mice; conditions: for Recovered bacterial titers per thigh, 1 mg/kg / Recovered bacterial titers per thigh, 10 mg/kg / Recovered bacterial titers per thigh, 40 mg/kg: neutropenic mice, 24 h postinfection; for Recovered bacterial titers per thigh, 1 mg/kg: 1 mg/kg one hour after inoculation; for Recovered bacterial titers per thigh, 10 mg/kg: 10 mg/kg one hour after inoculation; for Recovered bacterial titers per thigh, 40 mg/kg: 40 mg/kg one hour after inoculation; for In vivo antibacterial efficacy compared with oritavancin: deduced from the data of Table 3
# Experimental: The susceptibility of S. aureus strain ATCC13709 to oritavancin (5) and selected synthesized compounds in vivo was evaluated with the well accepted neutropenic mouse thigh infection model (Craig, W. A. et al. Journal of Antimicrobial Chemotherapy (1991), 27 (Suppl. C):29-40). Mice were made neutropenic by treatment with cyclophosphamide (150 and 100 mg/kg of body weight administered intraperitoneally 4 days and 1 day prior to infection). Mice were anesthetized briefly with approximately 4% isoflurane just prior to inoculation. The bacterial suspension (0.1 mL) was injected intramuscularly into each thigh (approximately 10^5 colony forming units (CFU)/thigh). The selected agents were administered in 10% (w/w) β-hydroxypropylcyclodextrin in water at a concentration of 10 mg/mL one hour following bacterial inoculation. The animals were humanely sacrificed by CO2 asphyxiation 24 h postinfection. The entire thigh muscle mass including the bone was homogenized and diluted in 0.9% saline and aliquots were plated on Brain-Heart Infusion agar. Following overnight incubation at 37° C., bacteria were enumerated for each thigh and expressed as log10 CFU per thigh. This was performed over three independent experiments and oritavancin (5) was used as a comparator in each.
# S. aureus ATCC 13709 = test: In vitro antibacterial susceptibility (MIC, broth microdilution); assay type: cell-based; conditions: for MIC against S. aureus ATCC 13709, CAMHB: cation-adjusted Mueller-Hinton broth, 37° C., 18 h; for Antibacterial activity compared with oritavancin 5: deduced from the MIC data of Table 2; for MIC: Staphylococcus aureus
# Experimental: Susceptibility of S. aureus strain ATCC13709 to oritavancin (5) and synthesized compounds was determined following the guidelines set by the Clinical and Laboratory Standards Institute (formerly the National Committee for Clinical Laboratory Standards) (M26-A). Compounds were serially diluted two-fold in either DMSO (Oritavancin 5) or in PBS and transferred to cation-adjusted Mueller Hinton broth (CAMHB; Becton Dickinson). 50 μL of compounds diluted in CAMHB was mixed with 100 μL of bacteria diluted in CAMHB in 96-well microtiter plates. The final number of micro-organisms in the assay was 5×10^5 c.f.u. per mL and the final concentration of DMSO in the assay, if present, was 1.25%. All solutions may contain 0.002% Tween as indicated. Assays were set up in duplicate and incubated at 37° C. for 18 h. The concentration of compound that inhibited visible growth was reported as the minimum inhibitory concentration (MIC).
# [2] = Solubility in phosphate buffered saline; assay type: physicochemical; conditions: 10 mM phosphate buffered saline (0.138 M NaCl, 2.7 mM KCl), pH 7.4
# Experimental: To a sample of the material of known mass were added known volumes of phosphate buffered saline until complete dissolution is observed. Suspensions were centrifuged for 5 min at 10000 rpm. […] Upon complete dissolution, the solution is diluted until the final concentration is 0.5 mg/mL to ensure that the material remains soluble over the entire range of concentrations.
SMILES,"Recovered bacterial titers per thigh, 1 mg/kg [1] [Log10 CFU/thigh]","Recovered bacterial titers per thigh, 10 mg/kg [1] [Log10 CFU/thigh]","Recovered bacterial titers per thigh, 40 mg/kg [1] [Log10 CFU/thigh]","MIC against S. aureus ATCC 13709, CAMHB + 0.002% tween (S. aureus ATCC 13709) [µg/mL]","MIC against S. aureus ATCC 13709, CAMHB + 50% human serum (S. aureus ATCC 13709) [µg/mL]","MIC against S. aureus ATCC 13709, CAMHB + 50% mouse serum (S. aureus ATCC 13709) [µg/mL]","MIC against S. aureus ATCC 13709, CAMHB (S. aureus ATCC 13709) [µg/mL]",Antibacterial activity compared with oritavancin 5 (S. aureus ATCC 13709),Solubility (mg/mL) PBS [2],In vivo antibacterial efficacy compared with oritavancin [1],"MIC against S. aureus ATCC 13709, CAMHB + 50% rat serum (S. aureus ATCC 13709; CAMHB + 50% rat serum) [µg/mL]","Recovered bacterial titers per thigh, 1 mg/kg ([1]; 1 mg/kg)","Recovered bacterial titers per thigh, 10 mg/kg ([1]; 10 mg/kg)","Recovered bacterial titers per thigh, 40 mg/kg ([1]; 40 mg/kg)","MIC (S. aureus ATCC 13709; ATCC13709, 18 h, read-out: MIC against S. aureus ATCC 13709, CAMHB) [µg/mL]","MIC (S. aureus ATCC 13709; ATCC13709, read-out: MIC against S. aureus ATCC 13709, CAMHB + 0.002% tween) [µg/mL]","MIC (S. aureus ATCC 13709; ATCC13709, read-out: MIC against S. aureus ATCC 13709, CAMHB + 50% human serum) [µg/mL]","MIC (S. aureus ATCC 13709; ATCC13709, read-out: MIC against S. aureus ATCC 13709, CAMHB + 50% mouse serum) [µg/mL]","MIC (S. aureus ATCC 13709; ATCC13709, read-out: MIC against S. aureus ATCC 13709, CAMHB + 50% rat serum) [µg/mL]","solubility ([2]; aqueous buffer, thermodynamic from solid, read-out: Solubility (mg/mL) PBS) [mg/mL]"
CNC(CC(C)C)C(=O)NC1C(=O)NC(CC(N)=O)C(=O)NC2C(=O)NC3C(=O)NC(C(=O)NC(C(=O)OCC(=O)NCCCN)c4cc(O)cc(O)c4-c4cc3ccc4O)C(OC3CC(C)(N)C(O)C(C)O3)c3ccc(c(Cl)c3)Oc3cc2cc(c3OC2OC(CO)C(O)C(O)C2OC2CC(C)(NCc3ccc(-c4ccc(Cl)cc4)cc3)C(O)C(C)O2)Oc2ccc(cc2Cl)C1O (stereo not shown) [Compound 90b],8.61 ± 0.16,6.44 ± 1.82,2.97 ± 2.35,0.5,0.25,0.5,1,within an order of magnitude of that of oritavancin 5,≧100 mg/mL,–,–,–,–,–,–,–,–,–,–,–
CNC(CC(C)C)C(=O)NC1C(=O)NC(CC(N)=O)C(=O)NC2C(=O)NC3C(=O)NC(C(=O)NC(C(=O)SCC(=O)NCCCN)c4cc(O)cc(O)c4-c4cc3ccc4O)C(OC3CC(C)(N)C(O)C(C)O3)c3ccc(c(Cl)c3)Oc3cc2cc(c3OC2OC(CO)C(O)C(O)C2OC2CC(C)(NCc3ccc(-c4ccc(Cl)cc4)cc3)C(O)C(C)O2)Oc2ccc(cc2Cl)C1O (stereo not shown) [Compound 93],8.53 ± 0.49,4.45 ± 1.68,4.18 ± 1.70,0.125,0.25,1,0.5,within an order of magnitude of that of oritavancin 5,≧100 mg/mL,within the same order of magnitude than oritavancin itself,–,–,–,–,–,–,–,–,–,–
CNC(CC(C)C)C(=O)NC1C(=O)NC(CC(N)=O)C(=O)NC2C(=O)NC3C(=O)NC(C(=O)NC(C(=O)OCC[N+](C)(C)C)c4cc(O)cc(O)c4-c4cc3ccc4O)C(OC3CC(C)(N)C(O)C(C)O3)c3ccc(c(Cl)c3)Oc3cc2cc(c3OC2OC(CO)C(O)C(O)C2OC2CC(C)(NCc3ccc(-c4ccc(Cl)cc4)cc3)C(O)C(C)O2)Oc2ccc(cc2Cl)C1O (stereo not shown) [Compound 95],8.32 ± 0.17,3.95 ± 1.57,2.96 ± 0.96,0.25,0.5,2,1,within an order of magnitude of that of oritavancin 5,≧100 mg/mL,within the same order of magnitude than oritavancin itself,0.125,–,–,–,–,–,–,–,–,–
"CN[C@H](CC(C)C)C(=O)N[C@H]1C(=O)N[C@@H](CC(N)=O)C(=O)N[C@H]2C(=O)N[C@H]3C(=O)N[C@H](C(=O)N[C@H](C(=O)O)c4cc(O)cc(O)c4-c4cc3ccc4O)[C@H](O[C@H]3C[C@](C)(N)[C@@H](O)[C@H](C)O3)c3ccc(c(Cl)c3)Oc3cc2cc(c3O[C@@H]2O[C@H](CO)[C@@H](O)[C@H](O)[C@H]2O[C@H]2C[C@](C)(NCc3ccc(-c4ccc(Cl)cc4)cc3)[C@@H](O)[C@H](C)O2)Oc2ccc(cc2Cl)[C@H]1O [Oritavancin (5), oritavancin, reference compound]",–,–,–,–,–,–,–,–,<0.1 mg/mL,–,–,8.16 ± 0.38 Log10 CFU/thigh and 7.96 ± 0.93 Log10 CFU/thigh and 7.98 ± 0.11 Log10 CFU/thigh,5.19 ± 1.86 Log10 CFU/thigh and 3.81 ± 1.16 Log10 CFU/thigh and 3.03 ± 0.53 Log10 CFU/thigh,2.62 ± 0.18 Log10 CFU/thigh and 2.62 ± 0.51 Log10 CFU/thigh and 2.29 ± 0.70 Log10 CFU/thigh,1,0.125,0.125,0.25,0.25,< 0.1
